# Laboratory results: US20240000899A1, “THERAPEUTIC USEFUL AGAINST ANTIMICROBIAL RESISTANT AGENTS” (priority 2022, published 2024)
# Legend:
# [1] = 4.0% w/v concentration; cited from earlier work
# [2] = tested on: human coronavirus; settings: therapeutic concentration (~1.7 pH), in vitro suspension tests
# [3] = tested on: mouse fibroblast cells
# [4] = aerosolized, pH range of 1.5 to 2.0
# From the text: Additionally, the low pH acid formulation needs to provide no or minimum deleterious effect to host tissues.
# [5] = tested on: HepG2 (human liver) cell culture; test: Modified cytotoxicity protocol: residual anions of neutralized acid formulations; format: cell-based; settings: for Cytotoxicity of residual anions, conclusion in words: pH 1.5
# Method: Purpose: A modified cytotoxicity protocol was developed focusing on the cytotoxicity of the residual anions of the acid formulations. Twenty different acids formulations were tested, each in the range of 1.95 to 1.5 pH. Each formulation was diluted with distilled water to hydronium concentrations of 11.22 mM (pH 1.95), […] (pH 1.85), 19.95 mM (pH 1.70), 25.12 mM (pH 1.60), and 31.62 mM (pH 1.50). It was then titrated with NaOH to 7.4 pH and applied to HepG2 (human liver) cell culture in triplicate replicates.
# [6] = tested on: Staphylococcus aureus ATCC 6538; test: Modified ASTM E2315 test of low pH therapeutic with AMPs, acid neutralized after one minute; format: cell-based
# From the text: Since the reaction speed of the two different MOAs are different, a modified test protocol was developed, which is summarized below. • a. […] Heretofore, it has been believed that AMPs are unstable in low pH environments. Mixture of dry powder immediately prior to use is believed to address concerns regarding minimization of in vitro stability. • b. The prepared AMP solution was then mixed with the bacteria containing media. After one minute the acid solution was neutralized. This simulates the short antimicrobial period for the elevated proton concentration in vivo. The bacteria population was measured to determine efficacy after one minute. • c. The AMPs retained in the solution are not expected to stop their antimicrobial activity after acid neutralization, so a second bacteria population measurement was made after 24 hours. [table]
compound,measurement,setting,value
OB(O)O [Boric acid],pH,[1],4.8-5.0
O=S(=O)(O)O [sulfuric acid],Time to inactivating and/or reducing concentration of human coronavirus,[2],≤ 1 min
same,Cytotoxicity,[3],no cytotoxicity
same,Harm to host respiratory tissues in vivo,[4],not harmful
Hydroxyacetic + HCl [Example 15],% Viability @ pH 1.9,[5],117%
Hydroxyacetic +. Sulfuric [Example 8],% Viability @ pH 1.9,[5],72.7%
Isoacorbic + sulfuric [Example 17],% Viability @ pH 1.9,[5],89.3%
Isoascorbic + HCl [Example 18],"Cytotoxicity of residual anions, conclusion in words",[5],least toxic
same,% Viability @ pH 1.9,[5],104%
"LL-37 [Example 38, reference compound]",1-min Efficacy (log),"[6]; bacteria population after one minute, then acid neutralized, no soiling, single-replicant",4.15 log
same,"Efficacy on S. aureus, conclusion in words",[6]; comparison of Table 3 examples,highly effective
same,24-hour Efficacy (log),"[6]; second bacteria population measurement after 24 hours, acid neutralized after one minute",>6.45 log
Sulfuric [Example 3],"Cytotoxicity of residual anions, conclusion in words",[5],least toxic
same,% Viability @ pH 1.9,[5],140%
